Assay results: PubChem BioAssay AID449750 (Broad Institute, 2010)
Calls of active or inactive are those of the source. How the calls were made is not given here.

Assay: non-covalent RecA intein splicing inhibitors, dose response, biochemical, cell-free, fluorescence, secondary screen (AID 449750)

SMILES | AC50
COc1ccc(NC(=S)NC(NC(=O)CCl)C(Cl)(Cl)Cl)c([N+](=O)[O-])c1 (stereo not given) | 2.67 µM
O=C(O)c1ccc(S(=O)(=O)/N=C2\C=C(Nc3ccccc3F)C(=O)c3ccccc32)cc1 | 0.229 µM
O=C(CN(c1cccc(Br)c1)S(=O)(=O)c1ccccc1)N/N=C/c1cc([N+](=O)[O-])ccc1O | > 38 µM (inactive)
COc1cc(C(=O)NCC(=O)N/N=C/c2cccc(OC(=O)c3ccco3)c2)cc(OC)c1OC | > 38 µM (inactive)
O=[N+]([O-])c1cccc(C=Nc2cccc3ccccc23)c1O | > 38 µM (inactive)
CCCCCc1c2c(cc(O)c1C(=O)O)OC(=O)c1c(cc(OC)cc1C(=O)CCCC)O2 | 8.72 µM
CCOC(=O)c1[nH]c(=O)c2ccccc2c1O | 2.65 µM
CCCCCCCCCCOC(=O)Cn1c(COc2ccccc2OC)[n+](C)c2ccccc21 | 7.46 µM
O=C1c2ccccc2C(=O)c2c1oc(C(F)(F)F)c2C(=O)c1ccccc1 | > 38 µM (inactive)
CC(Oc1ccc(F)cc1)C(=O)Oc1ccc(N(C)S(=O)(=O)c2ccccc2)cc1 (stereo not given) | > 38 µM (inactive)
CCOc1ccc(/C=C2\SC(=S)N(CCC(=O)Nc3ccccc3C(=O)O)C2=O)cc1 | 18.3 µM
O=C(CCCN1C(=O)/C(=C\c2ccccc2)SC1=S)Nc1ccc(O)cc1C(=O)O | 32.7 µM
Cc1cc(O)ccc1Nc1nc(-c2cccs2)cs1 | 31.7 µM
CCOC(=O)c1c(C)oc2c1c1c(c3ccccc32)OCN(CCCC(=O)O)C1 | 4.93 µM
Cc1ccc(C(=O)N/N=C/c2ccc(-c3ccccc3[N+](=O)[O-])o2)cn1 | 9.17 µM
CCc1[nH]nc2c1C(c1cccc(OC(=O)N3CCOCC3)c1)C(C#N)=C(N)O2 (stereo not given) | > 38 µM (inactive)
Cc1c(C#N)c(NC(=O)CCl)n(Cc2ccccc2)c1C | 7.6 µM
CCCn1c(=O)[nH]c(=O)c2c1nc(-c1ccc(OC(F)F)c(OC)c1)n2CCOC | > 38 µM (inactive)
CCN(CC)c1ccc(/C=C2\C(=O)N(c3nnc(C)c(=O)[nH]3)N=C2C)cc1 | 5.67 µM
Cc1ccc(NC(=O)C2=C(c3ccccc3)S(=O)(=O)CCS2(=O)=O)cc1 | > 38 µM (inactive)
O=C(Oc1ccc(N2C(=O)CCC2=O)cc1)c1ccco1 | 0.433 µM
CCCCOC(=O)CNc1nnc(SCC(=O)OCC)[nH]c1=O | > 38 µM (inactive)
CC(C)(C)OC(=O)N/N=C\c1ccc(OC(=O)c2ccco2)cc1 | > 38 µM (inactive)
CC(=O)N(C1=C(N2CCOCC2)C(=O)c2ccccc2C1=O)c1ccc(C(=O)O)cc1 | 9.14 µM
Cc1ccc(S(=O)(=O)Nc2c(O)ccc3ccccc23)cc1 | 8.05 µM
COc1ccc(-c2cc(=O)n(-c3ccc([N+](=O)[O-])cc3)[nH]2)cc1 | 3.4 µM
CCc1ccc(S(=O)(=O)/N=C2\C=CC(=O)c3ccccc32)cc1 | 2.6 µM

SMILES | AC50
O=C(O)C1Nc2c(O)cc(Cl)c([N+](=O)[O-])c2C2C=CCC12 (stereo not given) | 10.9 µM
CC(=O)c1cc(O)c2ccccc2c1O | 13.3 µM
O=C(CCl)N1CCN2C(=O)c3ccccc3C12c1ccc(Cl)cc1 (stereo not given) | 7.81 µM
COc1cc(C(c2c(C)[nH][nH]c2=O)c2c(C)[nH][nH]c2=O)ccc1OC(C)C | 12 µM
O=C1CCCC2=C1C1(O)C(=O)c3ccccc3C1(O)O2 (stereo not given) | 7.79 µM
COc1ccc(-c2csc(Nc3ccc(O)cc3)n2)cc1 | > 38 µM (inactive)
O=C(NC(NC(=S)Nc1ccc(Cl)cc1Cl)C(Cl)(Cl)Cl)c1cccc([N+](=O)[O-])c1 (stereo not given) | 2.62 µM
CCCSc1cc(NCCOC(=O)CCC)c([N+](=O)[O-])c2nonc12 | > 38 µM (inactive)
O=[N+]([O-])c1ccc(O)c2ncccc12 | 6.6 µM
Cc1nc2ccccc2c2c1C(=O)N(c1cccc(C(=O)O)c1)C2=O | > 38 µM (inactive)
CN(C)/C=C/C(=O)c1ccc2noc(-c3ccc(F)cc3)c2c1 | > 38 µM (inactive)
CCOc1cc(/C=C2/SC(=S)N(Cc3ccccc3)C2=O)ccc1O | > 38 µM (inactive)
O=Nc1c(O)c2ccccc2c2ccccc12 | 2.68 µM
CC(/C=N/NC(=O)Cc1cc(=O)[nH][nH]1)=C\c1ccccc1 | 27 µM
CCOC(=O)c1c(NC(C)=O)sc2c1CCC(C=NCCCN(CC)CC)=C2Sc1ccccc1 | 0.311 µM
COc1ccc(N(Cc2cc(=O)[nH]c3ccccc23)C(=O)CCl)cc1 | 8.33 µM
Cc1cccc(CS(=O)(=O)c2nnc([C@H](Cc3ccccc3)NC(=O)OC(C)(C)C)o2)c1 | > 38 µM (inactive)
O=C(O)CC1S/C(=N/N=C/c2ccc(-c3ccccc3[N+](=O)[O-])o2)NC1=O (stereo not given) | 9.4 µM
Cc1[nH]n(-c2ccccc2)c(=O)c1/C=C1/C=c2ccccc2=N1 | > 38 µM (inactive)
COc1ccc(Nc2ccc3c(c2)=NC2(CCCCC2)[N+]=3[O-])cc1 | 15 µM
O=C(OCn1ncc(Cl)c(Cl)c1=O)c1ccc(C(F)(F)F)cc1 | 3.99 µM
O=[N+]([O-])c1cc([N+](=O)[O-])c2cc3ccccc3nc2c1 | 7.29 µM
Cc1ccc(SCc2[nH]nc3c2C(c2ccc(C)o2)C(C#N)=C(N)O3)cc1 (stereo not given) | > 38 µM (inactive)
COc1ccc(C2CC(c3cccs3)=NN2C(=O)CCl)cc1OC (stereo not given) | 3.39 µM
CC1=C(CC(=O)c2ccc(Cl)cc2)C(=O)c2ccccc2C1=O | 16.3 µM
CC(=O)Nc1ccc(OC(=O)c2ccco2)cc1 | > 38 µM (inactive)
O=C(Cc1cc(=O)[nH][nH]1)N/N=C/c1cccc2ccccc12 | 17.4 µM

SMILES | AC50
O=C(NCc1cccnc1)/C(=C\c1ccc(-c2cccc(Cl)c2)o1)S(=O)(=O)c1ccccc1 | 26.9 µM
CC1=NNC(=O)C1C(c1ccccc1)C(C#N)C#N (stereo not given) | > 38 µM (inactive)
C(=N\Nc1nncc2ccccc12)/c1ccccn1 | 19.8 µM
CCc1cc(C(=O)c2ccc(C)cc2)c(NC(=O)CCl)s1 | 2.62 µM
Cc1ccc(-n2nnnc2CCl)cc1 | 24 µM
CCn1nc(C)c(C2C(C#N)=C(N)Oc3n[nH]c(C)c32)c1C (stereo not given) | > 38 µM (inactive)
COc1cc(C2CC(c3cccs3)=NN2C(=O)CCl)ccc1OC(F)F (stereo not given) | > 38 µM (inactive)
O=C1c2cc(F)ccc2-n2c1nc1ccccc1c2=O | > 38 µM (inactive)
Cc1ccc(C[n+]2c(-c3ccc(C)cc3)cc(-c3ccc(C)cc3)cc2-c2ccc(C)cc2)cc1 | 6.62 µM
Cc1ccc(OC(=O)c2ccc([N+](=O)[O-])cc2Cl)cn1 | > 38 µM (inactive)
CCc1ccc(NC(=O)c2nc(S(=O)(=O)Cc3ccccc3)ncc2Cl)cc1 | > 38 µM (inactive)
C/C(CC(=O)Nc1cc(C)ccn1)=N\NC(=O)C(=O)NC(C)C | > 38 µM (inactive)
CCc1ccccc1N1C(=O)C(Cl)=C(N2CCOCC2)C1=O | > 38 µM (inactive)
COc1ccc(-n2c(C)cc(C(=O)CCl)c2C)cc1 | 13.6 µM
CC[C@@H](CO)NC(=O)[C@@H]1C=C2c3cccc4c3c(cn4C)C[C@H]2N(C)C1 | > 38 µM (inactive)
Cc1[nH]n(-c2ccccc2)c(=O)c1C(C[N+](=O)[O-])c1ccc(Br)cc1 (stereo not given) | 11.1 µM
N#CCCN(C(=O)CCl)c1cccc(Cl)c1 | 38.9 µM
CCCCOc1ccc(C(=O)C(CN2CCOCC2)c2ccccc2)cc1 (stereo not given) | 7.35 µM
CC(=O)c1c(Cl)nc2cccc3c2c1-c1ccccc1C3=O | > 38 µM (inactive)
O=S(=O)(Cc1ccccc1)c1cnc2ccccc2n1 | > 38 µM (inactive)
CC(=O)N1C(=O)C2(C(C#N)=C(N)Oc3c2c(C)nn3-c2ccccc2)c2ccccc21 (stereo not given) | 28 µM
O=c1[nH]cc(N=Cc2cc(Cl)cc(Cl)c2O)c(=O)[nH]1 | > 38 µM (inactive)
O=C(c1c[nH]c(C(=O)C(Cl)(Cl)Cl)c1)c1ccccc1Br | 24.8 µM
CC1=CC2(O)OCCN(CCO)C2=CC1=O (stereo not given) | 13.5 µM
O=C(CCCN1C(=O)/C(=C/c2cccs2)SC1=S)Nc1ccc(O)cc1 | > 38 µM (inactive)
C=CCN1C(=O)NC(c2ccc(OC)cc2)(C(F)(F)F)S/C1=C(\C#N)c1nnc(N2CCOCC2)n1-c1ccccc1 (stereo not given) | 32.4 µM
CCOC(=O)Cc1[nH]nc2c1C(c1ccsc1)C(C#N)=C(N)O2 (stereo not given) | > 38 µM (inactive)

SMILES | AC50
Cn1c2c(c(=O)n(C)c1=O)[C@@]1(C(=O)Nc3ccccc31)C(C#N)=C(N)O2 | > 38 µM (inactive)
CCCn1nc([N+](=O)[O-])c(C(C#N)c2nc3ccccc3s2)c(Cl)c1=O (stereo not given) | 23.4 µM
CCOC(=O)/C(C#N)=C\c1ccc(O)c(OC)c1 | > 38 µM (inactive)
CN(CCc1cnn(C)c1)C(=O)C1CCC(=O)N(CC2CCCCC2)C1 (stereo not given) | > 38 µM (inactive)
COc1ccc(S(=O)(=O)Nc2ccc(O)c3ccccc23)cc1 | 0.296 µM
COc1cc(C(c2c(C)[nH][nH]c2=O)c2c(C)[nH][nH]c2=O)ccc1OS(=O)(=O)c1ccccc1 | 9.54 µM
N#C/C(=C/c1ccc2c(c1)OCO2)C(=O)Nc1ccc(O)cc1 | > 38 µM (inactive)
COc1cccc(C(=O)Nc2nc(SCc3ccc(Cl)cc3)n[nH]2)c1 | > 38 µM (inactive)
O=[N+]([O-])c1ccc(Oc2cccc(Br)c2)c2ccncc12 | 13.1 µM
c1ccc(-c2nc(N3CCCCCC3)nc(-n3ccnc3)n2)cc1 | > 38 µM (inactive)
CC(=O)c1c(C)nc(-c2ccc(Cl)cc2)nc1N=CN(C)C | > 38 µM (inactive)
c1ccc(C2[C@H]3CN(Cc4cccnc4)[C@H](c4ccccc4)C34CC2(c2cccnc2)C4)cc1 (stereo not given in full) | 10.7 µM
Oc1cccc(C=Nc2cccc3ccccc23)c1O | 4.42 µM
CC1=NN(c2ccc(S(=O)(=O)O)cc2Cl)C(=O)C1 | 3.66 µM
Cc1[nH][nH]c(=O)c1C(c1ccc(Cl)cc1)c1c(C)[nH][nH]c1=O | 18.1 µM
CCOc1ccc(S(=O)(=O)NCc2cccnc2)cc1C | > 38 µM (inactive)
Nc1ccc2nc[nH]c2c1 | 10.6 µM
Cc1[nH]nc2c1C(c1ccc(-c3ccc(Cl)cc3)o1)C(C#N)=C(N)O2 (stereo not given) | 39.1 µM
Cn1nc(C(C)(C)C)cc1C(=O)Sc1cccc(Br)c1 | > 38 µM (inactive)
COc1ccc(N(C(=O)CCl)C(C(=O)NC2CCCCC2)c2cccnc2)cc1 (stereo not given) | 3.87 µM
Cc1[nH]n(-c2ccccc2)c(=O)c1C(c1ccc(C(=O)O)cc1)c1c(C)[nH]n(-c2ccccc2)c1=O | 2.11 µM
CCCCCCCCCCC[N+](C)(C)CC/C=C1/c2ccccc2Sc2ccc(Cl)cc21 | 4.77 µM
Cc1cccc(N(Cc2cc(=O)[nH]c3ccccc23)C(=O)CCl)c1 | 6.83 µM
Cc1cccc(CS(=O)(=O)c2ncc(Cl)c(C(=O)Nc3nnc(C(C)C)s3)n2)c1 | 2.13 µM
